Results on five compounds are retold here after patent publication US7371768B2, “Pyrazol derivatives, pest control agent comprising the same as active ingredient, and process for producing the same” (Nihon Nohyaku Co., Ltd., priority 2000, dated 2008).

Where two headings read alike, the source gives them in different places.

The subject of data set [1] is Nilaparvata lugens. Kind of data set: Insecticidal effect on larvae of brown rice planthopper through systemic activity (root uptake). The data set is classed as in vivo. To be noted: for Death rate (%) 0.8 ppm: 0.8 ppm agent solution at rice roots; for Death rate (%) 0.8 ppm / Death rate (%) 3.1 ppm: larvae placed after 3 days, 4th day, 25° C.; for Death rate (%) 3.1 ppm: 3.1 ppm agent solution at rice roots; for insecticidal activity through systemic property, in words: summary of Table 6. Here is the method:
Roots of young rice seedlings (height: about 10 cm) planted in a plastic cup were washed with water and soil was washed away so as not to damage the fine roots. The stem was pinched by a urethane tip (diameter: 3 cm, height: 2 cm) having a cut line and the roots were inserted into an Erlenmeyer flask to which 50 ml of an agent solution (an aqueous dilution of the agricultural and horticultural insecticide of the present invention prepared in accordance with Formulation Example 1) was placed beforehand (2 to 3 young rice seedlings/flask). The urethane chip was wedged into the mouse of the flask to fix the rice seedlings. A glass tube (diameter: 3 cm, height: 5 cm) was placed thereon, wedged into the urethane chip, and fixed with a tape. The flask in such state was kept in a constant temperature room at 25° C. for 3 days. Five larvae of Nilaparvata lugens were placed in the glass tube and then the tube was capped with a urethane chip, followed by keeping in the constant temperature room at 25° C. (duplicates at a concentration). The mortality and agony of the larvae were investigated on 4th day after the treatment to obtain a death rate (%) taking an agonizing insect as a ½ dead insect. This test was carried out on two agent solutions different in the concentration of the active ingredient. The results are shown in Table 6 (the compound numbers in the table correspond to the numbers in Table 1).
Additionally, as reference compounds, Compounds I, II and III described in JP-A-10-338676 were similarly tested.

Data set [2] has as its system Nilaparvata lugens. As to the kind of experiment: Insecticidal effect on larvae of brown rice planthopper, spray test. Format: in vivo. To be noted: 500 ppm, sprayed, 4th instar larvae, 25° C., after 5 days; agonizing insect counted as 1/2 dead. Here is the method: A rice seedling was planted in a glass cylinder (inner diameter: 3 cm×length: 17 cm), and five 4th instar larvae of Nilaparvata lugens were set free therein. An agricultural and horticultural insecticide of the present invention was prepared in accordance with Formulation Example 3 and diluted with water, and 0.5 ml of the resulting dilution was sprayed into the above glass cylinder with a spraying tower (manufactured by Mizuho Rika) (duplicates at a concentration). The cylinder was kept in a constant temperature room at 25° C., and the mortality and agony of the larvae were investigated after 5 days from the treatment to obtain a death rate (%) taking an agonizing insect as a ½ dead insect. The results obtained are shown in Table 2 (the compound numbers in the table correspond to the numbers in Table 1).

For a further data set, the system named is Myzus persicae. As to the kind of experiment: Insecticidal effect on larvae of green peach aphid, leaf soak. The data set is classed as in vivo. To be noted: 500 ppm, leaves soaked about 5 seconds, 25° C., 4th day after treatment. Here is the method: Water was put in a screw bottle (volume: 10 ml), and a leaftalk of Japanese radish was placed therein and then inoculated with 5 to 6 insects of Myzus persicae per leave. After the inoculation, the bottle was put in a glass cylinder (diameter: 3.5 cm; height: 15 cm, with a mesh cover), and the insects were let to proliferate in a constant temperature room kept at 25° C. for 3 days. The imagoes on the leaves were removed, and the leaves were soaked in an aqueous dilution of an agricultural and horticultural insecticide of the present invention prepared in accordance with Formulation Example 3 (for about 5 seconds) and then returned into the glass cylinder (duplicates at a concentration). The cylinder was kept in the constant temperature room at 25° C., and the number of the insects on the leaves was counted on the 4th day after the treatment to obtain a death rate (%) based on the results. The results obtained are shown in Table 5 (the compound numbers in the table correspond to the numbers in Table 1).

The subject of the next data set is Callosobruchus chinensis. As to the kind of experiment: Insecticidal effect on imagoes of adzuki bean weevil, spray test. To be noted: 500 ppm, sprayed, 25° C., after 4 days, agonizing insect counted as 1/2 dead. The data set is classed as in vivo. As for the experimental part:
Two adzuki beans were put in a glass cylinder (inner diameter: 3 cm×length: 15 cm), and 10 imagoes of Callosobruchus chinensis were set free therein. An agricutural and horticultural insecticide of the present invention was prepared in accordance with Formulation and diluted with water, and 0.3 ml of the resulting dilution was sprayed in the above glass cylinder with a spray tower (manufactured by Mizuho Rika) (duplicates at a concentration). The cylinder was kept in temperature room at 25° C., and the mortality and agony of thee larvae were investigated after 4 days from the treatment to obtain a death rate (%) taking an agonizing insect as a ½ dead insect. The results obtained are shown in Table 4 (the compound numbers in the table correspond to the numbers in Table 1).

Another data set deals with Plutella xylostella. Kind of data set: Insecticidal effect on larvae of diamond back moth, cabbage leaf disc dip. To be noted: 500 ppm, 3-instar larvae, 25° C., after 4 days, agonizing insect counted as 1/2 dead. The data set is classed as in vivo. As for the experimental part:
A disc (diameter: 6 cm) cut out of a cabbage leaf was for 1 minute in an aqueous dilution of the agricultural and horticultural insecticide of the present invention prepared in accordance with Formulation Example 1, then air-dried, and placed in a plastic cup (inner diameter: 7 cm). Five 3-instar larvae of Plutella xylostella were set free in the cup (duplicates at a concentration). The cup was kept in a constant temperature room at 25° C., and the death and agony of the larvae were investigated after 4 days from the treatment to obtain a death rate (%) taking an agonizing insect as a ½ dead insect. The results are shown in Table 3 (the compound numbers in the following table below correspond to the numbers in Table 1).

In data set [3] the test system is Chinese hamster lung fibroblast line V79. Kind of data set: In vitro intercellular metabolic cooperation inhibition test (IMC). Format: cell-based. As for the experimental part: In this Test Example, using an inhibitory action of gap-junctional intercellular communication as an index, the existence of carcinogenicity (tumor-promoting action) of a compound was investigated.
In this test, a mixed culture system of Chinese hamster lung fibroblast line V79 (hgprt+) having hypoxanthine-guanine phosphoribosyltransferase activity and cells having no such activity (hgprt−) was treated by adding thereto the following compounds together with 6-thioguanine (6-TG). When the intercellular communication is normal, the toxic metabolite of 6-TG formed in hgprt+ cells (6-TG sensitive) is transferred into hgprt− cells (6-TG resistant) through gap junction, so that both of the cells die. On the other hand, when the intracellular communication is inhibited by the test compound, only the hgprt− cells survive and form colonies.

A further data set relates to Cat Flea. Kind of data set: Insecticidal effect on cat flea, treated filter. Particulars: 0.7 mg/filter; mortality investigated on 1st day and 2nd day after treatment. The data set is classed as in vivo. Here is the method: Onto a round filter (diameter: 10 cm) was added dropwise 0.7 ml of an agent solution diluted to a predetermined concentration. After drying, the filter was placed on the bottom of a cylinder (diameter: 10 cm×height: 30 cm). Ten fleas were set free therein and the mortality was investigated on 1st day and 2nd day after the treatment to calculate a death rate (%) based on the results. The results are shown in Table 7 (the compound numbers in the table correspond to the numbers in Table 1).

On to `N#Cc1nn(-c2c(Cl)cc(C(F)(F)F)cc2Cl)c(NCc2ccncc2)c1SCF` [Compound No. 1, 1-(2,6-dichloro-4-trifluoromethylphenyl)-4-fluoromethylthio-5-(pyridin-4-ylmethylamino)pyrazole-3-carbonitrile], for which the “Death rate (%) 0.8 ppm” value in the data set with Nilaparvata lugens [1] is reported as 100%. Further, in the data set with Nilaparvata lugens [1], the “Death rate (%) 3.1 ppm” value came to 100%. In addition, the “Death rate (%)” value in the data set on Nilaparvata lugens [2], in the data set with Myzus persicae, in the data set with Callosobruchus chinensis and in the data set on Plutella xylostella was 100% in each case.

With `N#Cc1nn(-c2c(Cl)cc(C(F)(F)F)cc2Cl)c(NCc2ccccn2)c1SC(F)(F)F` [III], in the data set on Nilaparvata lugens [1], the “Death rate (%) 0.8 ppm” value is listed as 0%; the “Death rate (%) 3.1 ppm” value was found to be 0%; the “insecticidal activity through systemic property, in words” value is “obviously inferior effect”.

Consider `CSc1c(C#N)nn(-c2c(Cl)cc(C(F)(F)F)cc2Cl)c1NCc1ccncc1` [Compound I], for which, in the data set on Nilaparvata lugens [1], the “Death rate (%) 0.8 ppm” value amounted to 100%; the “Death rate (%) 3.1 ppm” value is on record as 100%; the “insecticidal activity through systemic property, in words” value is listed as “insecticidal activity through a high systemic property”. In addition, the “IMC test result (inhibition of gap-junctional intercellular communication, index of tumor-promoting action)” value in data set [3] is given as “positive”. Moreover, the colony forming rate result in data set [3] (at 7.5 and 15 μg/ml, V79 hgprt+/hgprt- mixed culture with 6-thioguanine) was “significant increase”.

In the case of `N#Cc1nn(-c2c(Cl)cc(C(F)(F)F)cc2Cl)c(NCc2ccccn2)c1SC(F)F` [Compound No. 2, 1-(2,6-dichloro-4-trifluoromethylphenyl)-4-difluoromethylthio-5-(pyridin-2-ylmethylamino)pyrazole-3-carbonitrile], the “Death rate (%) 0.8 ppm” value with Nilaparvata lugens [1] is 100%. In addition, the “Death rate (%) 3.1 ppm” value in the data set on Nilaparvata lugens [1] stood at 100%. Also, the “Death rate (%)” value in the data set with Nilaparvata lugens [2], in the data set with Myzus persicae, with Callosobruchus chinensis, in the data set on Cat Flea and in the data set with Plutella xylostella was 100% each time. Further, the “IMC test result (inhibition of gap-junctional intercellular communication, index of tumor-promoting action)” value in data set [3] (V79 hgprt+/hgprt- mixed culture with 6-thioguanine) was “negative”.

Consider `N#Cc1nn(-c2c(Cl)cc(C(F)(F)F)cc2Cl)c(NCc2ccncc2)c1SC(F)(F)F` [II], for which, in the data set on Nilaparvata lugens [1], the “Death rate (%) 0.8 ppm” value was determined as 20%; the “Death rate (%) 3.1 ppm” value is listed as 50%; the “insecticidal activity through systemic property, in words” value was “obviously inferior effect”.
